Results reported in patent US20240383954A1, “PEPTIDE INHIBITORS OF INTERLEUKIN-23 RECEPTOR AND THEIR USE TO TREAT INFLAMMATORY DISEASES” (Janssen Biotech, Inc., priority 2020, published 2024).
Positions of bridges follow the written chain, without caps; N, C: chain ends. Non-standard residues stand in square brackets, D forms with d. Residues, ends and D or L forms follow the SMILES beside them. *: point of attachment. Trp(7-Me) = Cc1cccc2c(C[C@H](N)C(=O)O)c[nH]c12; 2Nal = N[C@@H](Cc1ccc2ccccc2c1)C(=O)O; Propanoyl(3,3,3-F3) = O=C(CC(F)(F)F)*; AEF = NCCOc1ccc(C[C@H](N)C(=O)O)cc1; αMeF = C[C@](N)(Cc1ccccc1)C(=O)O; Pen = CC(C)(S)[C@H](N)C(=O)O; Ac5c = NC1(C(=O)O)CCCC1; Thp = NC1(C(=O)O)CCOCC1; Ac3c = NC1(C(=O)O)CC1; Butyryl = CCCC(=O)*; X6 = c1cc(N*)n[nH]1

target: IL-23R (Homo sapiens, UniProt Q5VWK5); test: cell-based; settings: PBMC pSTAT3 IC50 (nM), PBMCs from healthy donors, IL-23 5 ng/mL, 30 minutes, phosphorylated STAT3
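Further: cryopreserved PBMCs stimulated at 37 °C in 5% CO2, then lysed, with phosphorylated STAT3 quantified in lysates using a phospho-STAT panel kit.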

Chain of IL-23R (Q5VWK5 24-629): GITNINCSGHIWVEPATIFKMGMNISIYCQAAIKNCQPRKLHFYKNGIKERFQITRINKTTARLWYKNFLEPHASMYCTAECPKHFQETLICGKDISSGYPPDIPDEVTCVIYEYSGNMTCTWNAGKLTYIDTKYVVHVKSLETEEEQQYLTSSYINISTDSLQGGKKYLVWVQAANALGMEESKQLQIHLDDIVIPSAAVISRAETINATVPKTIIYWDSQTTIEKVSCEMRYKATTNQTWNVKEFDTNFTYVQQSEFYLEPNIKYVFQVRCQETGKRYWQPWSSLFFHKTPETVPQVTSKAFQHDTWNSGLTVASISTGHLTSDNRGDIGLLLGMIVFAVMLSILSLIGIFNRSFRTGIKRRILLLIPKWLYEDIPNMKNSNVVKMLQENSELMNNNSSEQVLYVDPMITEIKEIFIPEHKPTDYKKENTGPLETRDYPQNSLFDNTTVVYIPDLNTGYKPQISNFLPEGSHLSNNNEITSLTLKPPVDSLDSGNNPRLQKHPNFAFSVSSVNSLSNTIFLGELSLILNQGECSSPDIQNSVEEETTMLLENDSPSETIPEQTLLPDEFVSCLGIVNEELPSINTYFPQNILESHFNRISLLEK

SMILES	IC50 [nM]
CC(=O)NCCCC[C@@H]1NC(=O)[C@H](Cc2c[nH]c3c(C)cccc23)NC(=O)[C@H]([C@@H](C)O)NC(=O)[C@H](CC(N)=O)NC(=O)[C@@H](NC(C)=O)C(C)(C)SSC(C)(C)[C@@H](C(=O)N[C@@H](Cc2ccc(OCCN)cc2)C(=O)N[C@@H](Cc2ccc3ccccc3c2)C(=O)N[C@@](C)(CCCCN)C(=O)N[C@@H](CCCCNC(C)=O)C(=O)N[C@@H](CC(N)=O)C(=O)N[C@@](C)(Cc2ccccc2)C(=O)N[C@@H](Cc2cccnc2)C(N)=O)NC1=O [Compound 116, Ac-[Pen]-N-T-[W(7-Me)]-[Lys(Ac)]-[Pen]-Phe[4-(2-aminoethoxy)]-[2-Nal]-[a-MeLys]-[Lys(Ac)]-N-[a-MePhe]-[3Pal]-NH2]	20
C[C@@H](O)[C@@H]1NC(=O)[C@H](CCC(N)=O)NC(=O)[C@@H](NC(=O)[C@@H](CCCNC(=N)N)NC(=O)CC(F)(F)F)C(C)(C)SSC(C)(C)[C@@H](C(=O)N[C@@H](Cc2ccc(OCCN)cc2)C(=O)N[C@@H](Cc2ccc3ccccc3c2)C(=O)NC2(C(=O)N[C@@H](CCC(=O)O)C(=O)N[C@@H](CC(N)=O)C(=O)NC3(C(N)=O)CCOCC3)CCOCC2)NC(=O)[C@H](CCC(N)=O)NC(=O)[C@H](Cc2c[nH]c3ccccc23)NC1=O [Compound 5, [3,3,3-Trifluoropropionic acid]-[(D)Arg]-[Pen]-Q-T-W-Q-[Pen]-Phe[4-(2-aminoethoxy)]-[2-Nal]-[THP]-E-N-[THP]-NH2] ({Propanoyl(3,3,3-F3)}-[dR][Pen]QTWQ[Pen][AEF][2Nal][Thp]EN[Thp]-NH2; disulfide 2-7)	4.7
CCCC(=O)NCCCC[C@H](NC(=O)C1(NC(=O)[C@H](Cc2ccc3ccccc3c2)NC(=O)[C@H](Cc2ccc(OCCN)cc2)NC(=O)[C@H]2NC(=O)[C@H](CCC(N)=O)NC(=O)[C@H](Cc3c[nH]c4ccccc34)NC(=O)[C@H]([C@@H](C)O)NC(=O)[C@H](CCC(N)=O)NC(=O)[C@@H](NC(=O)[C@@H](CCCNC(=N)N)NC(C)=O)C(C)(C)SSC2(C)C)CCOCC1)C(=O)N[C@@H](CC(N)=O)C(=O)NC1(C(N)=O)CCOCC1 [Compound 52, Ac-[(D)Arg]-[Pen]-Q-T-W-Q-[Pen]-Phe[4-(2-aminoethoxy)]-[2-Nal]-[THP]-[Lys(COPr)]-N-[THP]-NH2]	16
CC(=O)NCCCC[C@H](NC(=O)C1(NC(=O)[C@H](Cc2ccc3ccccc3c2)NC(=O)[C@H](Cc2ccc(OCCN)cc2)NC(=O)[C@H]2NC(=O)[C@H](CCC(N)=O)NC(=O)[C@H](Cc3c[nH]c4ccccc34)NC(=O)[C@H]([C@@H](C)O)NC(=O)[C@H](CCC(N)=O)NC(=O)[C@@H](NC(=O)[C@@H](CCCNC(=N)N)NC(C)=O)C(C)(C)SSC2(C)C)CCOCC1)C(=O)N[C@@H](CC(N)=O)C(=O)N[C@@H](Cc1ccccc1)C(N)=O [Compound 53, Ac-[(D)Arg]-[Pen]-Q-T-W-Q-[Pen]-Phe[4-(2-aminoethoxy)]-[2-Nal]-[THP]-[Lys(Ac)]-N-F-NH2] (Ac-[dR][Pen]QTWQ[Pen][AEF][2Nal][Thp]K(Ac)NF-NH2; disulfide 2-7)	29
CC(=O)NCCCC[C@@H]1NC(=O)[C@H](Cc2c[nH]c3c(C)cccc23)NC(=O)[C@H]([C@@H](C)O)NC(=O)[C@H](CC(N)=O)NC(=O)[C@@H](NC(C)=O)C(C)(C)SSC(C)(C)[C@@H](C(=O)N[C@@H](Cc2ccc(OCCN)cc2)C(=O)N[C@@H](Cc2ccc3ccccc3c2)C(=O)NC2(C(=O)N[C@@H](CCC(=O)O)C(=O)N[C@@H](CC(N)=O)C(=O)NC3(C(N)=O)CCOCC3)CC2)NC1=O [Compound 317, MeCO-Pen-N-T-7MeW-K(Ac)-Pen-AEF-2Nal-Acpx-E-N-THP---CONH2]	13
COc1ccc(C[C@H](NC(=O)[C@@H]2CSCC[C@H](NC(=O)[C@H](N)CCCNC(=N)N)C(=O)N[C@@H](CCC(N)=O)C(=O)N[C@@H]([C@@H](C)O)C(=O)N[C@@H](Cc3c[nH]c4ccccc34)C(=O)N[C@@H](CCC(N)=O)C(=O)N2)C(=O)N[C@@H](Cc2ccc3ccccc3c2)C(=O)NC2(C(=O)N[C@@H](CCC(=O)O)C(=O)N[C@@H](CC(N)=O)C(=O)NC3(C(N)=O)CCOCC3)CCOCC2)cc1 [Compound 22, [(D)Arg]-[Abu]-Q-T-W-Q-[Cys]-[Phe(4-OMe)]-[2-Nal]-[THP]-E-N-[THP]-NH2]	22
CC(=O)N[C@H](CCCNC(=N)N)C(=O)N[C@H]1CCSC[C@@H](C(=O)N[C@@H](Cc2ccc(OCCN)cc2)C(=O)N[C@@H](Cc2ccc3ccccc3c2)C(=O)NC2(C(=O)N[C@@](C)(CCC(=O)O)C(=O)N[C@@H](CC(N)=O)C(=O)N[C@@H](Cc3ccc(C(N)=O)cc3)C(N)=O)CCOCC2)NC(=O)[C@H](CCC(N)=O)NC(=O)[C@H](Cc2c[nH]c3ccccc23)NC(=O)[C@H]([C@@H](C)O)NC(=O)[C@H](CCC(N)=O)NC1=O [Compound 34, Ac-[(D)Arg]-[Abu]-Q-T-W-Q-[Cys]-Phe[4-(2-aminoethoxy)]-[2-Nal]-[THP]-[aMeGlu]-N-[Phe(4-CONH2)]-NH2]	5.8
CC(=O)NCCCC[C@@H]1NC(=O)[C@H](Cc2c[nH]c3c(C)cccc23)NC(=O)[C@H]([C@@H](C)O)NC(=O)[C@H](CC(N)=O)NC(=O)[C@@H](NC(=O)[C@@H](CCCNC(=N)N)NC(C)=O)C(C)(C)SSC(C)(C)[C@@H](C(=O)N[C@@H](Cc2ccc(OCCNC(C)=O)cc2)C(=O)N[C@@H](Cc2ccc3ccccc3c2)C(=O)NC2(C(=O)N[C@@H](CCC(=O)O)C(=O)N[C@@H](CC(N)=O)C(=O)NC3(C(N)=O)CCOCC3)CC2)NC1=O [Compound 308, MeCO-r-Pen-N-T-7MeW-K(Ac)-Pen-AEF(Ac)-2Nal-Acpx-E-N-THP-CONH2] (Ac-[dR][Pen]NT[Trp(7-Me)]K(Ac)[Pen][AEF](Ac)[2Nal][Ac3c]EN[Thp]-NH2; disulfide 2-7)	8
CC(=O)NCCCC[C@@H]1NC(=O)[C@H](Cc2c[nH]c3c(C)cccc23)NC(=O)[C@H]([C@@H](C)O)NC(=O)[C@H](CC(N)=O)NC(=O)[C@@H](NC(C)=O)C(C)(C)SSC(C)(C)[C@@H](C(=O)N[C@@H](Cc2ccc(OCCN)cc2)C(=O)N[C@@H](Cc2ccc3ccccc3c2)C(=O)NC2(C(=O)N[C@@H](CCCCNC(=O)C(C)(C)C)C(=O)N[C@@H](CC(N)=O)C(=O)NC3(C(N)=O)CCOCC3)CCOCC2)NC1=O [Compound 141, Ac-[Pen]-N-T-[W(7-Me)]-[Lys(Ac)]-[Pen]-Phe[4-(2-aminoethoxy)]-[2-Nal]-[THP]-[Lys(COtBu)]-N-[THP]-NH2]	3.7
CC(=O)N[C@H](CCCNC(=N)N)C(=O)N[C@@H]1C(=O)N[C@@H](CCC(N)=O)C(=O)N[C@@H]([C@@H](C)O)C(=O)N[C@@H](Cc2c[nH]c3ccccc23)C(=O)N[C@@H](CCC(N)=O)C(=O)N[C@H](C(=O)N[C@@H](Cc2ccc(OCCN)cc2)C(=O)N[C@@H](Cc2ccc3ccccc3c2)C(=O)NC2(C(=O)N[C@@H](CCC(=O)O)C(=O)N[C@@H](CC(N)=O)C(=O)N[C@@H](CC(=O)Nc3cc[nH]n3)C(N)=O)CCOCC2)C(C)(C)SSC1(C)C [Compound 133, Ac-[(D)Arg]-[Pen]-Q-T-W-Q-[Pen]-Phe[4-(2-aminoethoxy)]-[2-Nal]-[THP]-E-N-[(N-(3-Pyz))Asn]-NH2] (Ac-[dR][Pen]QTWQ[Pen][AEF][2Nal][Thp]END(X6)-NH2; disulfide 2-7)	21
CC(=O)NCCCC[C@@H]1NC(=O)[C@H](Cc2c[nH]c3c(C)cccc23)NC(=O)[C@H]([C@@H](C)O)NC(=O)[C@H](CC(N)=O)NC(=O)[C@@H](NC(=O)[C@@H](CCCNC(=N)N)NC(C)=O)C(C)(C)SSC(C)(C)[C@@H](C(=O)N[C@@H](Cc2ccc(OCCN)cc2)C(=O)N[C@@H](Cc2ccc3ccccc3c2)C(=O)NC2(C(=O)N[C@@H](CCC(=O)O)C(=O)N[C@@H](CC(N)=O)C(=O)N[C@@](C)(Cc3ccccc3)C(N)=O)CCCC2)NC1=O [Compound 94, Ac-[(D)Arg]-[Pen]-N-T-[W(7-Me)]-[Lys(Ac)]-[Pen]-Phe[4-(2-aminoethoxy)]-[2-Nal]-[Acvc]-E-N-[a-MePhe]-NH2] (Ac-[dR][Pen]NT[Trp(7-Me)]K(Ac)[Pen][AEF][2Nal][Ac5c]EN[αMeF]-NH2; disulfide 2-7)	12
CCCC(=O)NCCCC[C@H](NC(=O)C1(NC(=O)[C@H](Cc2ccc3ccccc3c2)NC(=O)[C@H](Cc2ccc(OCCN)cc2)NC(=O)[C@H]2NC(=O)[C@H](CCC(N)=O)NC(=O)[C@H](Cc3c[nH]c4ccccc34)NC(=O)[C@H]([C@@H](C)O)NC(=O)[C@H](CCC(N)=O)NC(=O)[C@@H](NC(=O)[C@@H](CCCNC(=N)N)NC(C)=O)C(C)(C)SSC2(C)C)CCOCC1)C(=O)N[C@@H](CC(N)=O)C(=O)N[C@@H](Cc1ccccc1)C(N)=O [Compound 58, Ac-[(D)Arg]-[Pen]-Q-T-W-Q-[Pen]-Phe[4-(2-aminoethoxy)]-[2-Nal]-[THP]-[Lys(COPr)]-N-F-NH2] (Ac-[dR][Pen]QTWQ[Pen][AEF][2Nal][Thp]K(Butyryl)NF-NH2; disulfide 2-7)	35
COc1ccc(C[C@H](NC(=O)[C@H](CC(N)=O)NC(=O)[C@](C)(CCC(=O)O)NC(=O)C2(NC(=O)[C@H](Cc3ccc4ccccc4c3)NC(=O)[C@H](Cc3ccc(OCCN)cc3)NC(=O)[C@@H]3CSCC[C@H](NC(=O)[C@@H](CCCNC(=N)N)NC(C)=O)C(=O)N[C@@H](CCC(N)=O)C(=O)N[C@@H]([C@@H](C)O)C(=O)N[C@@H](Cc4c[nH]c5ccccc45)C(=O)N[C@@H](CCC(N)=O)C(=O)N3)CCOCC2)C(N)=O)cc1OC [Compound 78, Ac-[(D)Arg]-[Abu]-Q-T-W-Q-[Cys]-Phe[4-(2-aminoethoxy)]-[2-Nal]-[THP]-[aMeGlu]-N-[Phe(3,4-diOMe)]-NH2]	31
CC(=O)N[C@H](CCCNC(=N)N)C(=O)N[C@H]1CCSC[C@@H](C(=O)N[C@@H](Cc2ccc(OCCN)cc2)C(=O)N[C@@H](Cc2ccc3ccccc3c2)C(=O)NC2(C(=O)N[C@@](C)(CCC(=O)O)C(=O)N[C@@H](CC(N)=O)C(=O)N[C@@H](Cc3cc(F)cc(F)c3)C(N)=O)CCOCC2)NC(=O)[C@H](CCC(N)=O)NC(=O)[C@H](Cc2c[nH]c3ccccc23)NC(=O)[C@H]([C@@H](C)O)NC(=O)[C@H](CCC(N)=O)NC1=O [Compound 46, Ac-[(D)Arg]-[Abu]-Q-T-W-Q-[Cys]-Phe[4-(2-aminoethoxy)]-[2-Nal]-[THP]-[aMeGlu]-N-[Phe(3,5-diF)]-NH2]	48
